The source of these data is patent publication US20240083857A1, “2-Methyl-Quinazolines” (Bayer Pharma Aktiengesellschaft, priority 2017, published 2024).

As a reminder, the pIC50 is the negative decadic logarithm of the IC50, by convention in mol/L. What is called IC50 is the midpoint of a concentration-inhibition curve. Usually inhibition stands for the share of the control response that was lost under treatment.

Assay [1] concerns the target human SOS1 (nucleotide exchange of K-Ras^G12C) (Homo sapiens, UniProt Q07889). In words: Biochemical assay 2: K-Ras^G12C activation assay by hSOS1 at high GTP concentration (HTRF). Background: Time-resolved FRET reads energy transfer from a long-lived donor to a nearby acceptor.
The target of assay [2] is human SOS1 (loading of human K-Ras^G12C-GDP with fluorescent GTP-analog) (Homo sapiens, UniProt Q07889). Nature of the assay: Biochemical assay 3: K-Ras^G12C activation assay by hSOS1 (HTRF).
Assay [3] has as its target Epidermal Growth Factor Receptor (EGFR) (Homo sapiens (Human), UniProt P00533). Nature of the assay: EGFR kinase assay (TR-FRET). The assay is classed as biochemical. Conditions: for pIC50: unit inferred. From the text: EGFR inhibitory activity of compounds of the present invention was quantified employing the TR-FRET based EGFR assay as described in the following paragraphs.
Epidermal Growth Factor Receptor (EGFR) affinity purified from human carcinoma A431 cells (Sigma-Aldrich, #E3641) was used as kinase. As substrate for the kinase reaction the biotinylated peptide biotin-Ahx-[…] (SEQ ID NO 5) (C-terminus in amid form) was used which can be purchased e.g. form the company Biosyntan GmbH (Berlin-Buch, Germany).
For the assay 50 nL of a 100 fold concentrated solution of the test compound in DMSO was pipetted into a black low volume 384 well microtiter plate (Greiner Bio-One, Frickenhausen, Germany), 2 μL of a solution of EGFR in aqueous assay buffer [50 mM Hepes/HCl pH 7.0, 1 mM MgCl2, 5 mM MnCl2, 0.5 mM activated sodium ortho-vanadate, 0.005% (v/v) Tween-20]were added and the mixture was incubated for 15 min at 22° C. to allow pre-binding of the test compounds to the enzyme before the start of the kinase reaction. […] The concentration of EGFR was adjusted depending of the activity of the enzyme lot and was chosen appropriate to have the assay in the linear range, typical concentration were about 3 U/ml. The reaction was stopped by the addition of 5 μl of a solution of HTRF detection reagents (0.1 μM streptavidine-XL665 [Cis Biointernational] and 1 nM PT66-Tb-Cryptate, an terbium-cryptate labelled anti-phospho-tyrosine antibody from Cis Biointernational [instead of the PT66-Tb-cryptate PT66-Eu-Chelate from Perkin Elmer can also be used]) in an aqueous EDTA-solution (80 mM EDTA, 0.2% (w/v) bovine serum albumin in 50 mM HEPES pH 7.5).
The resulting mixture was incubated 1 h at 22° C. to allow the binding of the biotinylated phosphorylated peptide to the streptavidine-XL665 and the PT66-Eu-Chelate. Subsequently the amount of phosphorylated substrate was evaluated by measurement of the resonance energy transfer from the PT66-Tb-Cryptate to the streptavidine-XL665. Therefore, the fluorescence emissions at 620 nm and 665 nm after excitation at 337 nm were measured in a HTRF reader, e.g. a Pherastar (BMG Labtechnologies, Offenburg, Germany) or a Viewlux (Perkin-Elmer). The ratio of the emissions at 665 nm and at […] was taken as the measure for the amount of phosphorylated substrate.

Assay [4] has as its target K-Ras^G12C : hSOS1 interaction (Homo sapiens, UniProt Q07889). Nature of the assay: Biochemical assay 1: K-Ras^G12C interaction assay with hSOS1 (HTRF). Type of assay: binding.
[5] abbreviates: E-notation values, unit inferred, 50 μM GTP, read-out: Assay 2 (KRAS-Activation, high GTP) IC50.
The mark [6] stands for this setting: E-notation values, unit inferred, read-out: Assay 3 (KRAS-Activation) IC50.
The mark [7] stands for this setting: E-notation values, read-out: EGFR-assay IC50.
Where [8] appears, read: values given in μM, read-out: EGFR kinase inhibition IC50.
[9] abbreviates: in μM, read-out: EGFR-assay IC50.
[10] abbreviates: read-out: Assay 1 (KRAS-SOS Interaction) activity expressed as IC50.
Where [11] appears, read: no GTP, read-out: Assay 3 (KRAS-Activation by SOS no GTP) activity expressed as IC50.

pIC50: −log10 of the molar value. Like-named read-outs stand apart in the source and are kept apart here.

Epidermal Growth Factor Receptor (EGFR), sequence (P00533 25-1210): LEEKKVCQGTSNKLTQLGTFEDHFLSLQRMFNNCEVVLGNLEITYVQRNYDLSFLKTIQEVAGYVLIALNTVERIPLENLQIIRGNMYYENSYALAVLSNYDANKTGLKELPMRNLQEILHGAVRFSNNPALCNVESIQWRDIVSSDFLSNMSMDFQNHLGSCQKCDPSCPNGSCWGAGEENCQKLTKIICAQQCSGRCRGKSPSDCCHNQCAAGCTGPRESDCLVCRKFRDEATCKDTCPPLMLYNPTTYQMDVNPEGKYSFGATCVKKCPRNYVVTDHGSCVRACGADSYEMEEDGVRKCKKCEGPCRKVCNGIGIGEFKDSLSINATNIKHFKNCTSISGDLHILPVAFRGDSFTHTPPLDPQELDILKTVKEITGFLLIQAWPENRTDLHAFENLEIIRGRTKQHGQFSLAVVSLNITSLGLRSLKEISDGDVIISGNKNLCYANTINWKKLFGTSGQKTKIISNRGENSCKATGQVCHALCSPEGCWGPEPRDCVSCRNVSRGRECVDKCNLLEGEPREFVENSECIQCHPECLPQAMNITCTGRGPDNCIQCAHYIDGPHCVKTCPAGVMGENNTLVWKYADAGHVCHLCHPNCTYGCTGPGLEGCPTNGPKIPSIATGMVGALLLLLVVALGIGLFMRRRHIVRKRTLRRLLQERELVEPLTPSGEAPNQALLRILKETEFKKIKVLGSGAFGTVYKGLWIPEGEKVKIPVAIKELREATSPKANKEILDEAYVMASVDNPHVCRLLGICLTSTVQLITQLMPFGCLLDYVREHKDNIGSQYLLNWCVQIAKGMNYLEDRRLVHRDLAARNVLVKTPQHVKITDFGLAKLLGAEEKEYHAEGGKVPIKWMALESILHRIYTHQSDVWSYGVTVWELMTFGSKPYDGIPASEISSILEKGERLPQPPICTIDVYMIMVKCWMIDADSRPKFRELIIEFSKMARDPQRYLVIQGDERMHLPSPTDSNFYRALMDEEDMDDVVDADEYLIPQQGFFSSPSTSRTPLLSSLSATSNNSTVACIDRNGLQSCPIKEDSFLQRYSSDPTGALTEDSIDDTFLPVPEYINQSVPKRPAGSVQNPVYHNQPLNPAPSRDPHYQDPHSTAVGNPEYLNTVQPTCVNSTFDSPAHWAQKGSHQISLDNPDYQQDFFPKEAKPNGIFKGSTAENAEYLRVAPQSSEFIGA

Regarding `Cc1nc(N[C@H](C)c2cccc(Cl)c2)c2ccc(Br)cc2n1` [Example 451, 7-bromo-N-[(1R)-1-(3-chlorophenyl)ethyl]-2-methylquinazolin-4-amine], the pIC50 in assay [1] (setting [5]), in assay [2] (setting [6]) and in assay [3] (setting [7]) was under 4.70 each time.
As for `CNCc1ccccc1-c1csc(C(C)Nc2nc(C)nc3cc(OC)c(OC)cc23)c1` (single isomer, unassigned; enantiomer 1) [Example 326, 6,7-dimethoxy-2-methyl-N-[1-(4-{2-[(methylamino)methyl]phenyl}thiophen-2-yl)ethyl]quinazolin-4-amine, Enantiomer 1], the IC50 in assay [3] (setting [8]) was over 20 µM.
`CNCc1ccccc1-c1csc(C(C)Nc2nc(C)nc3cc(OC)c(OC)cc23)c1` (single isomer, unassigned; enantiomer 2) [Example 327, 6,7-dimethoxy-2-methyl-N-[1-(4-{2-[(methylamino)methyl]phenyl}thiophen-2-yl)ethyl]quinazolin-4-amine, Enantiomer 2]: the IC50 in assay [3] (setting [8]) was over 20 µM.
`COc1cc2nc(C)nc(NC(C)c3ccc(-c4cc(C(=O)O)n(C)n4)s3)c2cc1OC` (centres unmarked) [Example 446, 3-(5-{1-[(6,7-dimethoxy-2-methylquinazolin-4-yl)amino]ethyl}thiophen-2-yl)-1-methyl-1H-pyrazole-5-carboxylic acid]: the negative-log IC50 (pIC50) in assay [1] (setting [5]), in assay [2] (setting [6]) and in assay [3] (setting [7]) was under 4.70 each time.
On to `Cc1nc(N[C@H](C)c2cccc(Cl)c2)c2cc(C(=O)O)ccc2n1` [Example 372, 4-{[(1R)-1-(3-chlorophenyl)ethyl]amino}-2-methylquinazoline-6-carboxylic acid], for which, in assay [3] (setting [9]), the IC50 was over 20 µM.
As for `Cc1nc(NC(C)c2ccc(-c3ccccc3CN(C)C)s2)c2cc([N+](=O)[O-])ccc2n1` (centres unmarked) [Example 421, N-[1-(5-{2-[(dimethylamino)methyl]phenyl}thiophen-2-yl)ethyl]-2-methyl-6-nitroquinazolin-4-amine], the negative-log IC50 (pIC50) in assay [1] (setting [5]) is 6.65; in assay [4] (E-notation values, unit inferred, read-out: Assay 1 (KRAS-SOS interaction) IC50), 6.84; in assay [3] (setting [7]), under 4.70.
Regarding `COc1cc2ncnc(N[C@H](C)c3cccc4ccccc34)c2cc1OC` [Reference compound, 6,7-dimethoxy-N-[(1R)-1-(1-naphthyl)ethyl]quinazolin-4-amine, reference compound], in assay [3] (read-out: EGFR kinase inhibition IC50), the negative logarithm of the IC50 (pIC50) is 6.26.
On to `COc1cc2nc(C)nc(NC(C)c3ccc(Br)s3)c2cc1OC` (centres unmarked) [Example 209, N-[1-(5-bromothiophen-2-yl)ethyl]-6,7-dimethoxy-2-methylquinazolin-4-amine], for which the negative logarithm of the IC50 (pIC50) in assay [4] (setting [10]) is 5.97; in assay [2] (setting [11]), 5.31. Also, the IC50 in assay [3] (setting [8]) was over 20 µM.
Consider `COc1cc2nc(C)nc(N[C@H](C)c3cccc(-c4cn[nH]c4)c3)c2cc1OCCS(C)(=O)=O` [Example 448, 7-methoxy-2-methyl-6-[2-(methylsulfonyl)ethoxy]-N-{(1R)-1-[3-(1H-pyrazol-4-yl)phenyl]ethyl}quinazolin-4-amine], for which the pIC50 in assay [1] (setting [5]), in assay [2] (setting [6]) and in assay [3] (setting [7]) was under 4.70 throughout.
In the case of `COc1cc2nc(C)nc(NC(C)c3csc(C)n3)c2cc1OC` (centres unmarked) [Example 444], the pIC50 in assay [1] (setting [5]), in assay [2] (setting [6]) and in assay [3] (setting [7]) was under 4.70 each time.
As to `COc1cc2nc(C)nc(NC(C)c3ccc(-c4ccc(Cl)cc4CNC(=O)OC(C)(C)C)s3)c2cc1OC` (centres unmarked) [Example 449, tert-butyl [5-chloro-2-(5-{1-[(6,7-dimethoxy-2-methylquinazolin-4-yl)amino]ethyl}thiophen-2-yl)benzyl]carbamate], the negative logarithm of the IC50 (pIC50) in assay [1] (setting [5]), in assay [2] (setting [6]) and in assay [3] (setting [7]) was under 4.70 throughout.
Consider `COc1cc2nc(C)nc(NC(C)c3nc(C)cs3)c2cc1OC` (centres unmarked) [Example 445, 6,7-dimethoxy-2-methyl-N-[1-(4-methyl-1,3-thiazol-2-yl)ethyl]quinazolin-4-amine], for which the pIC50 in assay [1] (setting [5]), in assay [2] (setting [6]) and in assay [3] (setting [7]) was under 4.70 throughout.
As to `COc1cc2nc(C)nc(NC(C)c3ccc(Br)o3)c2cc1OC` (centres unmarked) [Example 208, N-[1-(5-bromofuran-2-yl)ethyl]-6,7-dimethoxy-2-methylquinazolin-4-amine], the pIC50 in assay [4] (setting [10]) was 5.22. Besides, in assay [2] (read-out: Assay 3 (KRAS-Activation by SOS no GTP) activity expressed as % inhibition at 20 μM, no GTP, at 20 μM), the inhibition at 20 µM is 47%. The IC50 in assay [3] (setting [8]) was over 20 µM.
Turning to `COc1cc2nc(C)nc(NC(C)c3ccc(-c4cccc(Cl)c4CNC(=O)OC(C)(C)C)s3)c2cc1OC` (centres unmarked) [Example 450, tert-butyl [2-chloro-6-(5-{1-[(6,7-dimethoxy-2-methylquinazolin-4-yl)amino]ethyl}-thiophen-2-yl)benzyl]carbamate], the negative logarithm of the IC50 (pIC50) in assay [1] (setting [5]), in assay [2] (setting [6]) and in assay [3] (setting [7]) was under 4.70 throughout.
As to `CNCc1ccccc1-c1csc(C(C)Nc2nc(C)nc3cc(OC)c(OC)cc23)c1` (centres unmarked) [Example 271, 6,7-dimethoxy-2-methyl-N-[1-(4-{2-[(methylamino)methyl]phenyl}thiophen-2-yl)ethyl]quinazolin-4-amine], in assay [3] (setting [8]), the IC50 was over 20 µM.
Consider `COc1cc2nc(C)nc(N[C@H](C)c3cccc4ccccc34)c2cc1OC` [Example 1, 6,7-dimethoxy-2-methyl-N-[(1R)-1-(naphthalen-1-yl)ethyl]quinazolin-4-amine], for which the IC50 in assay [3] (setting [8]) was over 20 µM.
Take `COc1cc2nc(C)nc(NC(C)c3cccc4ncccc34)c2cc1OC` (centres unmarked) [Example 212, 6,7-dimethoxy-2-methyl-N-[1-(quinolin-5-yl)ethyl]quinazolin-4-amine]: the negative logarithm of the IC50 (pIC50) in assay [4] (setting [10]) was 6.19; in assay [2] (setting [11]), 5.58. For the same molecule, in assay [3] (setting [8]), the IC50 was over 20 µM.
`COc1cc2nc(C)nc(NC(C)c3ccc(-c4ccc(CNC(=O)OC(C)(C)C)s4)s3)c2cc1OC` (centres unmarked) [Example 447, tert-butyl [(5′-{1-[(6,7-dimethoxy-2-methylquinazolin-4-yl)amino]ethyl}-2,2′-bithiophen-5-yl)methyl]carbamate]: the pIC50 in assay [1] (setting [5]), in assay [2] (setting [6]) and in assay [3] (setting [7]) was under 4.70 throughout.
Regarding `COC(=O)c1ccc2c(N[C@H](C)c3cccc(Cl)c3)nc(C)nc2c1` [Example 453, methyl 4-{[(1R)-1-(3-chlorophenyl)ethyl]amino}-2-methylquinazoline-7-carboxylate], the pIC50 in assay [1] (setting [5]), in assay [2] (setting [6]) and in assay [3] (setting [7]) was under 4.70 each time.
Regarding `COc1cc2nc(C)nc(N[C@H](C)c3cccc(-c4c[nH]cn4)c3)c2cc1OC` [Example 342, N-{(1R)-1-[3-(1H-imidazol-4-yl)phenyl]ethyl}-6,7-dimethoxy-2-methylquinazolin-4-amine], the negative-log IC50 (pIC50) in assay [1] (high GTP, read-out: Assay 2 (KRAS-Activation by SOS high GTP) activity expressed as IC50) was 6.00; in assay [2] (setting [11]) it was 5.95. Further, in assay [3] (setting [8]), the concentration for half-maximal inhibition (IC50) is over 20 µM.
Turning to `COc1cc2nc(C)nc(NC(C)c3ccc(-c4ccccc4-c4nnn[nH]4)s3)c2cc1OC` (centres unmarked) [Example 368, 6,7-dimethoxy-2-methyl-N-[1-{5-[2-(1H-tetrazol-5-yl)phenyl]thiophen-2-yl}ethyl]-quinazolin-4-amine], in assay [3] (setting [9]), the IC50 is over 20 µM.
On the same count and under the same terms, then `COc1cc2nc(C)nc(NC(C)c3ccc(-c4ccccc4C(O)CCc4ccccc4)s3)c2cc1OC` (centres unmarked) [Example 375, 1-[2-(5-{1-[(6,7-dimethoxy-2-methylquinazolin-4-yl)amino]ethyl}thiophen-2-yl)phenyl]-3-phenylpropan-1-ol], with over 20 µM.
`Cc1nc(NC(C)c2ccc(Br)s2)c2cc([N+](=O)[O-])ccc2n1` (centres unmarked) [Example 452, N-[1-(5-bromothiophen-2-yl)ethyl]-2-methyl-6-nitroquinazolin-4-amine]: the pIC50 in assay [1] (setting [5]), in assay [2] (setting [6]) and in assay [3] (setting [7]) was under 4.70 each time.
